{
  "source": "ChEMBL document CHEMBL3785053",
  "about": "“Synthesis and screening of ursolic acid-benzylidine derivatives as potential anti-cancer agents” (Eur J Med Chem, 2016)",
  "key": {"[1]": {"assay": "Cytotoxicity against human THP1 cells after 48 hrs by MTT assay", "type": "functional, cell-based", "details": "THP-1, 48 h"}, "[2]": {"test_system": "A549", "assay": "Cytotoxicity against human A549 cells at 50 uM after 48 hrs by MTT assay", "type": "functional", "details": "A549, 48 h, read-out: GI"}, "[3]": {"assay": "Cytotoxicity against human FR2 cells after 48 hrs by MTT assay", "type": "cell-based", "details": "FR2, 48 h"}, "[4]": {"assay": "Induction of apoptosis in human HCT116 cells assessed as upregulation of caspase-9 expression at 20 uM after 24 hrs by Western blotting method", "type": "functional, cell-based", "details": "HCT-116"}, "[5]": {"test_system": "HCT-116", "assay": "Induction of cell cycle arrest in human HCT116 cells assessed as accumulation at G2 phase at 20 uM after 48 hrs by propidium iodide staining-based flow cytometry (reference value: 32.43%)", "type": "functional"}, "[6]": {"test_system": "HCT-116", "assay": "Induction of apoptosis in human HCT116 cells assessed as membrane blebbing at 10 to 20 uM after 24 hrs by acridine orange/ethidium bromide staining-based fluorescence microscopy", "type": "functional, cell-based"}, "[7]": {"test_system": "HCT-116", "assay": "Induction of apoptosis in human HCT116 cells assessed as pycnosis at 10 to 20 uM after 24 hrs by acridine orange/ethidium bromide staining-based fluorescence microscopy", "type": "functional, cell-based"}, "[8]": {"assay": "Cytotoxicity against human HCT116 cells at 50 uM after 48 hrs by MTT assay", "type": "functional", "details": "HCT-116, 48 h, read-out: GI"}, "[9]": {"test_system": "A549", "assay": "Cytotoxicity against human A549 cells after 48 hrs by MTT assay", "type": "functional, cell-based", "details": "A549, 48 h"}, "[10]": {"assay": "Cytotoxicity against human THP1 cells at 50 uM after 48 hrs by MTT assay", "type": "functional", "details": "THP-1, 48 h, read-out: GI"}, "[11]": {"assay": "Cytotoxicity against human FR2 cells at 50 uM after 48 hrs by MTT assay", "type": "cell-based", "details": "read-out: GI"}, "[12]": {"test_system": "HCT-116", "assay": "Induction of apoptosis in human HCT116 cells at 20 uM after 24 hrs by JC-1 staining-based fluorescence microscopy", "type": "functional, cell-based"}, "[13]": {"test_system": "HCT-116", "assay": "Induction of apoptosis in human HCT116 cells at 20 uM after 24 hrs by Hoechst 33258 staining-based fluorescence microscopy", "type": "functional, cell-based"}, "[14]": {"assay": "Cytotoxicity against human HCT116 cells after 48 hrs by MTT assay", "type": "functional, cell-based", "details": "HCT-116, 48 h"}, "[15]": {"assay": "Upregulation of Bax expression in human HCT116 cells at 20 uM after 24 hrs by Western blotting method", "type": "functional, cell-based", "details": "HCT-116"}, "[16]": {"test_system": "HCT-116", "assay": "Induction of apoptosis in human HCT116 cells assessed as cell budding at 10 to 20 uM after 24 hrs by acridine orange/ethidium bromide staining-based fluorescence microscopy", "type": "functional"}, "[17]": {"test_system": "MCF7", "assay": "Cytotoxicity against human MCF7 cells after 48 hrs by MTT assay", "type": "functional, cell-based", "details": "MCF7, 48 h"}, "[18]": {"assay": "Induction of apoptosis in human HCT116 cells assessed as upregulation of caspase-3 expression at 20 uM after 24 hrs by Western blotting method", "type": "functional, cell-based", "details": "HCT-116"}, "[19]": {"test_system": "MCF7", "assay": "Cytotoxicity against human MCF7 cells at 50 uM after 48 hrs by MTT assay", "type": "functional", "details": "MCF7, 48 h, read-out: GI"}, "[20]": {"test_system": "HCT-116", "assay": "Induction of cell cycle arrest in human HCT116 cells assessed as accumulation at G1 phase at 20 uM after 48 hrs by propidium iodide staining-based flow cytometry (reference value: 41.51%)", "type": "functional"}, "[21]": {"assay": "Downregulation of Bcl2 expression in human HCT116 cells at 20 uM after 24 hrs by Western blotting method", "type": "functional, cell-based", "details": "HCT-116"}},
  "note": "Activity calls are given as the source filed them. No cut-off for these calls is given here.",
  "data": [
    {"compound": "C[C@H]1[C@H](C)CC[C@]2(C(=O)O)CC[C@]3(C)C(=CC[C@@H]4[C@@]5(C)C/C(=C\\c6cc(O)ccc6O)C(=O)C(C)(C)[C@@H]5CC[C@]43C)[C@H]12", "values": [
      {"measurement": "IC50", "setting": "[1]", "result": 0.9, "unit": "µM"},
      {"measurement": "inhibition of growth at 50 µM", "setting": "[2]", "result": 93, "unit": "%"},
      {"measurement": "IC50", "setting": "[3]", "result": 0.8, "unit": "µM"},
      {"measurement": "Activity", "setting": "[4]", "result": "Active"},
      {"measurement": "Activity", "setting": "[5]", "result": 11.65, "unit": "%"},
      {"measurement": "Activity", "setting": "[6]", "result": "Active"},
      {"measurement": "Activity", "setting": "[7]", "result": "Active"},
      {"measurement": "inhibition of growth at 50 µM", "setting": "[8]", "result": 99, "unit": "%"},
      {"measurement": "IC50", "setting": "[9]", "result": 0.55, "unit": "µM"},
      {"measurement": "inhibition of growth at 50 µM", "setting": "[10]", "result": 94, "unit": "%"},
      {"measurement": "inhibition at 48 h, 50 µM", "setting": "[11]", "result": 91, "unit": "%"},
      {"measurement": "Activity", "setting": "[12]", "result": "Active"},
      {"measurement": "Activity", "setting": "[13]", "result": "Active"},
      {"measurement": "IC50", "setting": "[14]", "result": "< 0.1", "unit": "µM"},
      {"measurement": "Activity", "setting": "[15]", "result": "Active"},
      {"measurement": "Activity", "setting": "[16]", "result": "Active"},
      {"measurement": "IC50", "setting": "[17]", "result": 5.5, "unit": "µM"},
      {"measurement": "Activity", "setting": "[18]", "result": "Active"},
      {"measurement": "inhibition of growth at 50 µM", "setting": "[19]", "result": 100, "unit": "%"},
      {"measurement": "Activity", "setting": "[20]", "result": 65.58, "unit": "%"},
      {"measurement": "Activity", "setting": "[21]", "result": "Active"}
    ]},
    {"compound": "C[C@H]1[C@H](C)CC[C@]2(C(=O)O)CC[C@]3(C)C(=CC[C@@H]4[C@@]5(C)C/C(=C\\c6ccccc6)C(=O)C(C)(C)[C@@H]5CC[C@]43C)[C@H]12", "values": [
      {"measurement": "IC50", "setting": "[1]", "result": 16, "unit": "µM"},
      {"measurement": "inhibition of growth at 50 µM", "setting": "[2]", "result": 60, "unit": "%"},
      {"measurement": "IC50", "setting": "[3]", "result": 70, "unit": "µM"},
      {"measurement": "inhibition of growth at 50 µM", "setting": "[8]", "result": 95, "unit": "%"},
      {"measurement": "IC50", "setting": "[9]", "result": 18, "unit": "µM"},
      {"measurement": "inhibition of growth at 50 µM", "setting": "[10]", "result": 90, "unit": "%"},
      {"measurement": "inhibition at 48 h, 50 µM", "setting": "[11]", "result": 90, "unit": "%"},
      {"measurement": "IC50", "setting": "[14]", "result": 14, "unit": "µM"},
      {"measurement": "IC50", "setting": "[17]", "result": 23, "unit": "µM"},
      {"measurement": "inhibition of growth at 50 µM", "setting": "[19]", "result": 98, "unit": "%"}
    ]},
    {"compound": "C[C@H]1[C@H](C)CC[C@]2(C(=O)O)CC[C@]3(C)C(=CC[C@@H]4[C@@]5(C)C/C(=C\\C=C\\c6ccccc6)C(=O)C(C)(C)[C@@H]5CC[C@]43C)[C@H]12", "values": [
      {"measurement": "IC50", "setting": "[1]", "result": 16, "unit": "µM"},
      {"measurement": "inhibition of growth at 50 µM", "setting": "[2]", "result": 89, "unit": "%"},
      {"measurement": "IC50", "setting": "[3]", "result": 38, "unit": "µM"},
      {"measurement": "inhibition of growth at 50 µM", "setting": "[8]", "result": 98, "unit": "%"},
      {"measurement": "IC50", "setting": "[9]", "result": 0.65, "unit": "µM"},
      {"measurement": "inhibition of growth at 50 µM", "setting": "[10]", "result": 93, "unit": "%"},
      {"measurement": "inhibition at 48 h, 50 µM", "setting": "[11]", "result": 80, "unit": "%"},
      {"measurement": "IC50", "setting": "[14]", "result": 2.1, "unit": "µM"},
      {"measurement": "IC50", "setting": "[17]", "result": 12, "unit": "µM"},
      {"measurement": "inhibition of growth at 50 µM", "setting": "[19]", "result": 99, "unit": "%"}
    ]},
    {"compound": "C[C@H]1[C@H](C)CC[C@]2(C(=O)O)CC[C@]3(C)C(=CC[C@@H]4[C@@]5(C)C/C(=C\\c6ccc([N+](=O)[O-])cc6)C(=O)C(C)(C)[C@@H]5CC[C@]43C)[C@H]12", "values": [
      {"measurement": "IC50", "setting": "[1]", "result": 14, "unit": "µM"},
      {"measurement": "inhibition of growth at 50 µM", "setting": "[2]", "result": 99, "unit": "%"},
      {"measurement": "IC50", "setting": "[3]", "result": 69, "unit": "µM"},
      {"measurement": "inhibition of growth at 50 µM", "setting": "[8]", "result": 95, "unit": "%"},
      {"measurement": "IC50", "setting": "[9]", "result": 2, "unit": "µM"},
      {"measurement": "inhibition of growth at 50 µM", "setting": "[10]", "result": 95, "unit": "%"},
      {"measurement": "inhibition at 48 h, 50 µM", "setting": "[11]", "result": 99, "unit": "%"},
      {"measurement": "IC50", "setting": "[14]", "result": 12, "unit": "µM"},
      {"measurement": "IC50", "setting": "[17]", "result": 5, "unit": "µM"},
      {"measurement": "inhibition of growth at 50 µM", "setting": "[19]", "result": 95, "unit": "%"}
    ]}
  ]
}
